This is an account of results in publication PMC10544575, “Inhibitory mechanism of vortioxetine on CYP450 enzymes in human and rat liver microsomes” (Frontiers in Pharmacology, 2023).

For series [1], the system named is CYP450. The experiment in a line: Overall assessment of time-dependent inhibition (IC50-shift) on CYP450 in HLMs and RLMs. The format is in vitro ADME, human and rat. How it is done: (§1) IC50-shift was used to investigate whether the drug produced time-dependent inhibition (TDI) of the enzyme. […] The above mixture was then incubated for another 30 min. During the experiment, the individual substrates midazolam (4 μM), bupropion (40 μM), amodiaquine (3 μM), losartan (8 μM), mephenytoin (90 μM), and dextromethorphan (10 μM) were determined with vortioxetine IC50-shift in HLMs. […] Other experimental conditions were the same as above.

Series [2] has as its target CYP2C19 (Homo sapiens, UniProt P33261). In words: IC50-shift experiment, CYP2C19 in HLMs. The format is in vitro ADME. Also on record: 0.20 mg/mL HLMs or 0.20 mg/mL RLMs; from tissue; host or cells: human liver microsomes. The settings on record: for IC50: mephenytoin 90 μM. The method, then:
(§2) The components of the incubation system were as follows: 0.20 mg/mL HLMs or 0.20 mg/mL RLMs, 0.1 M Tris-HCl, vortioxetine, and the probe substrates of each enzyme. In the study of Km’s (Michaelis–Menten constant) experiment, midazolam (1, 2, 5, 10, 20, 50 and 100 μM in HLMs and RLMs) corresponded to CYP3A4/3A; bupropion (10, 20, 50, 100, 200, 500, 1,000 and 2000 μM in HLMs; 1, 2, 5, 10, 20, 50, 100 and 200 μM in RLMs) corresponded to CYP2B6/2B; amodiaquine (5, 10, 20, 50, 100 and 200 μM in HLMs; 10, 20, 50, 100, 200, 500 μM in RLMs) corresponded to CYP2C8/CYP2C-1; losartan (1, 2, 5, 10, 20, 50, 100, 200 μM in HLMs; 10, 20, 50, 100, 200, 500 and 1,000 μM in RLMs) corresponded to CYP2C9/CYP2C-2; mephenytoin (20, 50, 100, 200, 500 and 1,000 μM in HLMs; 5, 10, 20, 50, 100, 200, 500 and 1,000 μM in RLMs) corresponded to CYP2C19/CYP2C-3; and dextromethorphan (1, 2, 5, 10, 20, 50 and 100 μM in HLMs and RLMs) corresponded to CYP2D6/CYP2D. After 5.0 min of preincubation in the shaking water bath, the reaction was started with the addition of 1.0 mM NADPH. The incubated temperature at 37°C for 30 min. After the incubation, the enzyme reaction was stopped by cooling at −80°C, and 200 μL of acetonitrile and 20 μL of internal standard diazepam (200 ng/mL) were added for protein precipitation. The solution was fully vortexed and centrifuged at 13,000 × rpm for 10 min, and the supernatant was collected for data analysis by UPLC-MS/MS.
as §1
All experiments results were detected by UPLC-MS/MS, which equipped with a Waters Acquity UPLC system (Milford, MA, United States) and a Waters Xevo TQ-S triple quadrupole tandem mass spectrometer with an electrospray ionization source (Milford, MA, United States). The chromatographic separation was performed on a Waters ACQUITY UPLC BEH C18 column (2.1 × 50 mm, 1.7 μm, Waters Corp.) at 40°C. The mobile phase was consisted of acetonitrile (A) and 0.1% formic acid in water (B). The gradient elution at a flow rate of 0.4 mL/min was conducted as follows: 0–0.5 min, 10% A; 0.5–1.0 min, 10%–90% A; 1.0–2.0 min, 90% A; 2.0–2.1 min, 90%–10% A, and 2.1–3.0 min, 10% A. The relevant analysis parameters were shown in Table 1.
(§3) IC50 values and enzyme kinetic parameters were calculated by Graphpad Prism 6.0 (GraphPad software Inc., CA, United States). […] Data for each experiment were expressed as mean ± SD (n = 3).

The test system of series [3] is CYP2C-2. In words: Reversible inhibition kinetics (Lineweaver-Burk), CYP2C-2 in RLMs. The format is in vitro ADME, rat. The method, then:
as §2, with “After 5.0 min of preincubation in the shaking water bath, the reaction was started with the addition of 1.0 mM NADPH. The incubated temperature at 37°C for 30 min. After the incubation, the enzyme reaction was stopped by cooling at −80°C, and 200 μL of acetonitrile and 20 μL of internal standard diazepam (200 ng/mL) were added for protein precipitation. The solution was fully vortexed and centrifuged at 13,000 × rpm for 10 min, and the supernatant was collected for data analysis by UPLC-MS/MS.” left out
(§4) All experiments results were detected by UPLC-MS/MS, which equipped with a Waters Acquity UPLC system (Milford, MA, United States) and a Waters Xevo TQ-S triple quadrupole tandem mass spectrometer with an electrospray ionization source (Milford, MA, United States). […]
as §3

Series [4] relates to CYP3A. In words: IC50 of vortioxetine on CYP3A (midazolam) in RLMs. The format is in vitro ADME. The settings on record: rat, rat liver microsomes, probe midazolam. How it is done: as §2, with “After 5.0 min of preincubation in the shaking water bath, the reaction was started with the addition of 1.0 mM NADPH. The incubated temperature at 37°C for 30 min. After the incubation, the enzyme reaction was stopped by cooling at −80°C, and 200 μL of acetonitrile and 20 μL of internal standard diazepam (200 ng/mL) were added for protein precipitation. The solution was fully vortexed and centrifuged at 13,000 × rpm for 10 min, and the supernatant was collected for data analysis by UPLC-MS/MS.” left out
as §4, §3

Details of series [5]: method as in Chen et al., 2018. The settings on record: single oral dose of 10 mg; 14 healthy subjects; ref Chen et al., 2018; cited from earlier work.
Series [6] deals with CYP2C-1. In words: IC50-shift experiment, CYP2C-1 in RLMs. Type of series: in vitro ADME, rat.
Series [7] deals with CYP2B. The experiment in a line: IC50 of vortioxetine on CYP2B (bupropion) in RLMs. The format is in vitro ADME. The settings on record: rat, rat liver microsomes, probe bupropion. The method, then: as §2, with “After 5.0 min of preincubation in the shaking water bath, the reaction was started with the addition of 1.0 mM NADPH. The incubated temperature at 37°C for 30 min. After the incubation, the enzyme reaction was stopped by cooling at −80°C, and 200 μL of acetonitrile and 20 μL of internal standard diazepam (200 ng/mL) were added for protein precipitation. The solution was fully vortexed and centrifuged at 13,000 × rpm for 10 min, and the supernatant was collected for data analysis by UPLC-MS/MS.” left out
as §4, §3

Where [8] appears, read: inhibitory effect (strength judged by IC50), RLMs.

“Also recorded” adds a separate entry of the source. Read-outs that look alike come from different tables or passages of the source.

Sequence of CYP2C19 (P33261 whole entry): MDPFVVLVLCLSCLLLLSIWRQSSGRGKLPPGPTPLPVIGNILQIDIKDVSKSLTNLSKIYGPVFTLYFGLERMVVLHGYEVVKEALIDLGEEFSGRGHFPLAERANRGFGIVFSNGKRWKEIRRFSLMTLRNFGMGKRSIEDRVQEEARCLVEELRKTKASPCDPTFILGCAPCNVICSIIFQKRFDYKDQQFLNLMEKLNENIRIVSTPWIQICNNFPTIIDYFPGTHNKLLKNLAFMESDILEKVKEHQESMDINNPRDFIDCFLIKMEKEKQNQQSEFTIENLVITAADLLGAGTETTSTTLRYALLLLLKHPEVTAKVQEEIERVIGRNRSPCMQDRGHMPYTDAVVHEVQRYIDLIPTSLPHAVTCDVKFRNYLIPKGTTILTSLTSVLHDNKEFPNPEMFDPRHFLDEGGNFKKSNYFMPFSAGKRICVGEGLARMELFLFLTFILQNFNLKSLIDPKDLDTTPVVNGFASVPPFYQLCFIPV

Consider `Cc1ccc(Sc2ccccc2N2CCNCC2)c(C)c1` [vortioxetine], for which the “reversibility of inhibition of CYP450 enzymes” value in series [1] (all CYP450 enzymes studied) is recorded as “reversible inhibition”. Moreover, the “time-dependent inhibition (TDI)” value in series [1] (six CYP450 isoforms in HLMs and RLMs, judged by IC50-shift (>10 = TDI)) is “no time-dependent inhibition (TDI); also recorded: no TDI effect”. The IC50 is 2.83 µM in series [2] (CYP2C19, 30 min preincubation with 1.0 mM NADPH); 5.88 µM in series [2] (CYP2C19, 30 min preincubation without NADPH); 19.8 µM in series [6] (30 min preincubation without NADPH, amodiaquine 20 μM). Also, the IC50 shift at 30 min in series [2] (human, human liver microsomes, probe mephenytoin (90 μM), CYP2C19, ratio IC50 (−) NADPH to IC50 (+) NADPH, read-out: IC50 fold shift) was 2.08; in series [6] (rat, rat liver microsomes, probe amodiaquine, ratio IC50 (−) NADPH to IC50 (+) NADPH, read-out: IC50 fold shift), 1.98. In addition, the “activity of CYP2C19 with the NADPH” value in series [2] (preincubation with NADPH vs without) is listed as “significantly reduced”. Moreover, the Inhibition type result in series [3] (losartan, Lineweaver-Burk plot) is given as “competitive inhibition”. Besides, affinity in series [3] (rat, rat liver microsomes, probe losartan) was put at a Ki at 30 min of 120 nM. The IC50 at 30 min in series [4] (RLMs 0.20 mg/mL, midazolam at Km, 37°C, 30 min, read-out: IC50) was 16.4 µM; in series [4] (setting [8]), over 10 µM; in series [6] (rat, rat liver microsomes, probe amodiaquine, 30 min preincubation without NADPH, amodiaquine 20 μM), 18.3 µM; in series [7] (RLMs 0.20 mg/mL, bupropion at Km, 37°C, 30 min, read-out: IC50) it was 8.89 µM; in series [7] (setting [8]), 1 to 10 µM. In addition, in series [5], the “AUC(0-t)” value was 254.72 ngh/mL. Moreover, the Cmax in series [5] is recorded as 4.60 ng/mL.

By IC50 is commonly meant the midpoint of a concentration-inhibition curve. Usually Ki stands for the equilibrium dissociation constant of an inhibitor or competing ligand from its target. What is called Cmax is the peak of the concentration-time curve.
